Where two headings read alike, the source gives them in different places.

The target in assay [1] is HIV-1 RT enzyme (Human immunodeficiency virus type 1 group M subtype B, UniProt P04585). Nature of the assay: Assay for inhibition of HIV reverse transcriptase (RNA-dependent DNA polymerase, SPA). As to conditions: HIV-1 RT enzyme 1 nM, 1 hour at 37° C. Type of assay: biochemical. On the procedure: (§1) 100 μL reaction mixtures were initiated with a combination of primer-template substrate (10 nM final concentration) and dNTPs (0.6 μM dNTPs, 0.75 μM [^3H]-dGTP). The heterodimeric nucleic acid substrate was generated by annealing the DNA primer pD500 (described in Shaw-Reid et al., J. Biol. Chem., 278: 2777-2780; obtained from Integrated DNA Technologies) to t500, a 500 nucleotide RNA template created by in vitro transcription (see Shaw-Reid et al., J. Biol. Chem., 278: 2777-2780). After 1 hour incubation at 37° C., reactions were quenched by 10 μL streptavidin scintillation proximity assay beads (10 mg/mL, from Amersham Biosciences) in 0.5 M EDTA, pH 8. Microtiter plates were incubated an additional 10 minutes at 37° C. prior to quantification via Topcount (Packard).

Assay [2] deals with T1, mutant HIV reverse transcriptase, Y181C mutation (Human immunodeficiency virus type 1 group M subtype B, UniProt P04585, Y768C).
T1 construct: made in house
In words: Analogous RT inhibition assay, Y181C mutant. Type of assay: biochemical. The procedure: as §1
(§2) Analogous assays were conducted substituting mutant HIV strains to determine the […] inhibition of compounds of the present invention against mutant HIV reverse transcriptase. In one strain the reverse transcriptase has the Y181C mutation and in the other strain the reverse transcriptase has the K103N mutation. The mutations were generated with the […] site-directed mutagenesis kit (Stratagene).

Assay [3] deals with T2, mutant HIV reverse transcriptase, K103N mutation (Human immunodeficiency virus type 1 group M subtype B, UniProt P04585, K690N).
T2 construct: made in house
In words: Analogous RT inhibition assay, K103N mutant. Type of assay: biochemical. The procedure:
as §1, §2

In assay [4] the test system is acute HIV infection of T-lymphoid cells. Nature of the assay: Assay for inhibition of HIV replication (spread assay). As to conditions: Human immunodeficiency virus 1; inhibition of HIV replication in T-lymphoid cells. Type of assay: cell-based. The procedure:
An assay for the inhibition of acute HIV infection of T-lymphoid cells (alternatively referred to herein as the “spread assay”) was conducted in accordance with Vacca, J. P. et al., Proc. Natl. Acad. Sci. USA 1994, 91: 4096. […] The compounds of Examples 2-4 and 22 were not tested.

Where [5] appears, read: K103N mutant RT, tested up to 20 micromolar, read-out: IC50, K103N mutant assay.
The mark [6] stands for this setting: Y181C mutant RT, tested up to 20 micromolar, read-out: IC50, Y181C mutant assay.

For `O=S(=O)(c1ccccc1)c1c(-c2ncc(-c3ccncc3)s2)[nH]c2ccc(Cl)cc12` [Example 2, 5-chloro-3-(phenylsulfonyl)-2-(5-pyridin-4-yl-1,3-thiazol-2-yl)-1H-indole], in assay [1], the IC50 was 4000 nM.
With `COC(=O)c1cc(-c2c[nH]c(-c3[nH]c4ccc(Br)cc4c3S(=O)(=O)N3CCCC3)n2)ccc1O` [Example 31, methyl 5-{2-[5-bromo-3-(pyrrolidin-1-ylsulfonyl)-1H-indol-2-yl]-1H-imidazol-4-yl}-2-hydroxybenzoate], the IC50 in assay [2] is above 20000 nM; in assay [3] (setting [5]) it was below 1000 nM. This molecule yielded an IC95 in assay [4] below 1000 nM.
On to `O=[N+]([O-])c1ccc(-c2c[nH]c(-c3[nH]c4ccc(Br)cc4c3S(=O)(=O)N3CCCC3)n2)cc1` [Example 32, 5-bromo-2-[4-(4-nitrophenyl)-1H-imidazol-2-yl]-3-(pyrrolidin-1-ylsulfonyl)-1H-indole], for which the IC50 in assay [2] is 1000 to 20000 nM; in assay [3] (setting [5]), below 1000 nM. In addition, in assay [4], the IC95 is below 1000 nM.
For `N#Cc1ccc(-c2c[nH]c(-c3[nH]c4ccc(Br)cc4c3S(=O)(=O)N3CCCC3)n2)cc1` [Example 33, 4-{2-[5-bromo-3-(pyrrolidin-1-ylsulfonyl)-1H-indol-2-yl]-1H-imidazol-4-yl}benzonitrile], the IC50 was above 20000 nM in assay [2] and below 1000 nM in assay [3] (setting [5]). Moreover, in assay [4], the 95% effect concentration (IC95) is below 1000 nM.
For `Cc1cnc(-c2[nH]c3ccc(Cl)cc3c2S(=O)(=O)CC2CCC2)[nH]1` [Example 34, 5-Chloro-3-[(cyclobutylmethyl)sulfonyl]-2-(5-methyl-1H-imidazol-2-yl)-1H-indole], the IC50 in assay [2] (setting [6]) was below 1000 nM; in assay [3], above 3000 nM. Moreover, in assay [4], the IC95 was below 1000 nM.
In the case of `Cc1cnc(-c2[nH]c3ccc(Cl)cc3c2S(=O)(=O)C2CCCC2)[nH]1` [Example 35, 5-chloro-3-[(cyclopentyl)sulfonyl]-2-(5-methyl-1H-imidazol-2-yl)-1H-indole], the IC50 in assay [2] (setting [6]) and in assay [3] was below 1000 nM each time. Besides, the IC95 in assay [4] is below 1000 nM.
Regarding `CCC(CC)S(=O)(=O)c1c(-c2ncc(C)[nH]2)[nH]c2ccc(Cl)cc12` [Example 37, 5-chloro-3-[(pent-3-yl)sulfonyl]-2-(5-methyl-1H-imidazol-2-yl)-1H-indole], the IC50 is below 1000 nM in assay [2] (setting [6]) and above 10000 nM in assay [3]. In addition, in assay [4], the IC95 is below 1000 nM.

Broadly, the IC50 is the concentration that inhibits the measured activity by half. As usually defined, the IC95 is the concentration at which the effect reaches the 95% level. Low values mean greater potency, high ones weaker potency.

The record behind these values is patent US20100168097A1, “Non-Nucleoside Reverse Transcriptase Inhibitors” (priority 2005, published 2010).
